We go through 10 compounds from ChEMBL document CHEMBL1201862, “PubChem BioAssay data set” (2004).

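Grown in 96-well plates, cells were treated for 48 hours with each compound at five concentrations. Insufficient inhibition: endpoint recorded as highest concentration tested. The concentration for 50% growth inhibition is given as GI50.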 Active and inactive are the calls of the source. Cut-off read from the data, not from the text of the source: active = GI50 up to about 1.1 µM and inactive = higher. A value given as a limit tells only on which side of the number the result lay.

What all share (experiment): NCI-60 cell line screen, 48 h
Experiment [1] relates to SR.
Experiment [2] deals with RPMI-8226.
Experiment [3] has as its system MDA-MB-231.
In experiment [4] the test system is MCF7.
Experiment [5] deals with SK-OV-3.
For experiment [6], the system named is NCI-H522.
For experiment [7], the system named is SW-620.
The test system of experiment [8] is TK-10.
For experiment [9], the system named is T47D.
Experiment [10] relates to OVCAR-4.
Experiment [11] deals with EKVX.
The subject of experiment [12] is RXF 393.
For experiment [13], the system named is SF-295.
Experiment [14] concerns OVCAR-8.
Experiment [15] concerns DU-145.
Experiment [16] relates to HCT-116.
Experiment [17] deals with NCI-H23.
Experiment [18] concerns Hs-578T.
The subject of experiment [19] is MDA-N.
Experiment [20] concerns NCI-H460.

For `COc1cc2c(cc1OCc1ccccc1)NC(=S)[C@@H]1CCCN1C2=S`, the GI50 in experiment [1] was 48.5 µM (inactive); in experiment [2] it was > 100 µM (inactive); in experiment [3] it was 85.3 µM (inactive); in experiment [4], 95.5 µM (inactive); in experiment [5], > 100 µM (inactive); in [6] it was 71.6 µM (inactive). For the same compound, the GI50 is > 100 µM (inactive) in experiment [7]; > 100 µM (inactive) in experiment [8]; 82.4 µM (inactive) in experiment [9]; 4.09 µM (inactive) in [10]; > 100 µM (inactive) in experiment [11]; > 100 µM (inactive) in experiment [12]. Also, the GI50 was 37.5 µM (inactive) in [13]; 12.3 µM (inactive) in experiment [14]; > 100 µM (inactive) in [15]; > 100 µM (inactive) in experiment [16]; > 100 µM (inactive) in experiment [17]; 4.84 µM (inactive) in experiment [18]. Also, the GI50 in experiment [19] and in experiment [20] was > 100 µM (inactive) in each case.
In the case of `CCN(CCCl)CCCCNc1c2ccccc2nc2ccc(OC)cc12`, the GI50 is < 0.01 µM (active) in experiment [1]; 0.0535 µM (active) in experiment [2]; 0.457 µM (active) in experiment [3]; 0.0141 µM (active) in experiment [4]; 1.24 µM (inactive) in experiment [5]; 0.208 µM (active) in experiment [6]. The GI50 in experiment [7] is 0.0664 µM (active); in experiment [8], 0.92 µM (active); in experiment [9], 0.191 µM (active); in [10], 0.7 µM (active); in experiment [11], 0.723 µM (active); in experiment [12], 0.238 µM (active). Moreover, the GI50 is 0.259 µM (active) in [13]; 0.305 µM (active) in experiment [14]; 0.336 µM (active) in [15]; 0.0542 µM (active) in experiment [16]; 0.276 µM (active) in experiment [17]; 1.22 µM (inactive) in experiment [18]. Moreover, the figures for the GI50 in experiment [19] and in [20] were 0.676 µM (active) and 0.0601 µM (active), respectively.
For `O=c1c2ccccc2[nH]n1Cc1ccccc1`, the GI50 in experiment [1], in [2], in [3], in experiment [4], in experiment [5] and in experiment [6] was > 100 µM (inactive) throughout. Moreover, the GI50 in experiment [7], in experiment [8], in [9], in [10], in [11] and in experiment [12] was > 100 µM (inactive) in each case. The GI50 in experiment [13], in experiment [14], in [15], in [16], in experiment [17] and in experiment [18] was > 100 µM (inactive) throughout. The GI50 in [19] and in experiment [20] was > 100 µM (inactive) in each case.
As to `CCCCC1(N=[N+]=[N-])C(=O)C2C=CC=C3c4ccccc4N(C1=O)C32` (centres undefined), the GI50 in [1] was > 10 µM (inactive); in experiment [2], 17.7 µM (inactive); in experiment [3] it was 23.6 µM (inactive); in experiment [4], 17.1 µM (inactive); in experiment [5], 25.8 µM (inactive); in experiment [6] it was 13.6 µM (inactive). Also, the GI50 is 20.2 µM (inactive) in [7]; 16.4 µM (inactive) in experiment [8]; 14.1 µM (inactive) in experiment [9]; 21.6 µM (inactive) in [10]; 17.8 µM (inactive) in [11]; 13.7 µM (inactive) in experiment [12]. The GI50 in experiment [13] was 24.7 µM (inactive); in [14], 20.1 µM (inactive); in experiment [15], 58.5 µM (inactive); in experiment [16], 18.1 µM (inactive); in experiment [17], 14.4 µM (inactive); in experiment [18], 12.3 µM (inactive). In addition, the GI50 in [19] was 15.7 µM (inactive); in experiment [20], 17.2 µM (inactive).
`CCC(C)C1NC(=O)C(NC(=O)C(CC(C)C)N(C)C(=O)[C@@H]2C=CCN2C(=O)[C@H](C)O)C(C)OC(=O)[C@H](Cc2ccc(OC)cc2)N(C)C(=O)[C@@H]2CCCN2C(=O)[C@H](CC(C)C)NC(=O)C(C)C(=O)[C@H](C(C)C)OC(=O)CC1O` (some centres undefined): the GI50 is 0.000216 µM (active) in [1]; 0.00267 µM (active) in experiment [2]; 0.00608 µM (active) in experiment [3]; 0.00164 µM (active) in experiment [4]; 0.00239 µM (active) in [5]; 0.00111 µM (active) in experiment [6]. Also, the GI50 in experiment [7] was 0.00308 µM (active); in experiment [8], 0.0175 µM (active); in experiment [9] it was 0.0013 µM (active); in experiment [10], 0.00234 µM (active); in experiment [11], < 0.01 µM (active); in experiment [12] it was < 0.01 µM (active). In addition, the GI50 is 0.00248 µM (active) in experiment [13]; 0.00467 µM (active) in [14]; 0.00501 µM (active) in [15]; 0.00103 µM (active) in experiment [16]; 0.00184 µM (active) in [17]; < 0.01 µM (active) in experiment [18]. Further, the GI50 was 0.00293 µM (active) in experiment [19] and 0.00215 µM (active) in [20].
As to `CCc1n[nH]c(=O)n1-n1c(C)ccc1C`, the GI50 in experiment [1], in experiment [2], in [3], in [4], in experiment [5] and in experiment [6] was > 100 µM (inactive) throughout. In addition, the GI50 in [7], in experiment [8], in experiment [9], in [10], in experiment [11] and in [12] was > 100 µM (inactive) each time. The GI50 in experiment [13], in experiment [14], in experiment [15], in experiment [16], in experiment [18] and in [19] was > 100 µM (inactive) throughout. Moreover, the GI50 in experiment [20] is > 100 µM (inactive).
As to `COCn1c(C)c(C)c2c(=O)oc(=O)[nH]c21`, the GI50 in experiment [1], in experiment [2], in [3], in experiment [4], in experiment [5] and in experiment [6] was > 100 µM (inactive) in each case. The GI50 in experiment [7], in [8], in experiment [9], in [10], in experiment [11] and in experiment [12] was > 100 µM (inactive) each time. For the same compound, the GI50 in experiment [13], in [14], in [15], in [16], in [17] and in [18] was > 100 µM (inactive) in each case. Moreover, the GI50 in [19] and in [20] was > 100 µM (inactive) each time.
Regarding `O=C(NCCN1CCCCC1)c1ccc(Br)cc1`, the GI50 in experiment [1], in experiment [2], in experiment [3], in experiment [4], in [5] and in [6] was > 100 µM (inactive) in each case. The GI50 in [7], in experiment [8], in [9], in experiment [10], in [11] and in experiment [12] was > 100 µM (inactive) in each case. In addition, the GI50 in [13], in experiment [14], in experiment [15], in experiment [16], in experiment [17] and in [18] was > 100 µM (inactive) in each case. In addition, the GI50 in experiment [19] and in experiment [20] was > 100 µM (inactive) throughout.
As for `CCCCCCCCCCCCCCCCCCNc1ccn(C2OC(COP(=O)(O)OCC3OC(n4cc(F)c(=O)[nH]c4=O)CC3O)C(O)C2O)c(=O)n1` (centres undefined), the GI50 in [1] is 0.337 µM (active); in [2], 1.44 µM (inactive); in experiment [3], > 100 µM (inactive); in experiment [4], 0.274 µM (active); in experiment [5] it was 27.5 µM (inactive); in experiment [6], 4.83 µM (inactive). Besides, the GI50 was 42.8 µM (inactive) in experiment [7]; 14.7 µM (inactive) in experiment [8]; 27.9 µM (inactive) in [9]; 60 µM (inactive) in experiment [10]; 14.5 µM (inactive) in experiment [11]; 12.6 µM (inactive) in experiment [12]. Also, the GI50 in [13] was 0.47 µM (active); in experiment [14], 1.36 µM (inactive); in [15], 2.43 µM (inactive); in [16] it was 2.98 µM (inactive); in experiment [17], 1.48 µM (inactive); in [18] it was 17.8 µM (inactive). Moreover, the GI50 in experiment [19] was 46.6 µM (inactive); in experiment [20], 3.53 µM (inactive).
As for `C=C[C@]1(C)C[C@@H](OC(=O)CO)[C@@]2(C)[C@H](C)CC[C@]3(CCC(=O)[C@H]32)[C@@H](C)[C@@H]1O`, the GI50 in experiment [1] is > 43.4 µM (inactive); in [2], 70.5 µM (inactive); in experiment [3] it was > 100 µM (inactive); in experiment [4], 21.5 µM (inactive); in [5], > 100 µM (inactive); in experiment [6], 67.9 µM (inactive). The GI50 in experiment [7] is > 82.2 µM (inactive); in experiment [8] it was > 59.3 µM (inactive); in experiment [9] it was 99.5 µM (inactive); in experiment [10], > 100 µM (inactive); in [11] it was > 100 µM (inactive); in experiment [12], > 59 µM (inactive). The GI50 is > 76.4 µM (inactive) in experiment [13]; > 100 µM (inactive) in experiment [14]; > 100 µM (inactive) in experiment [15]; > 55.6 µM (inactive) in experiment [16]; > 70.1 µM (inactive) in experiment [17]; > 53.1 µM (inactive) in [18]. Besides, the GI50 in [19] was > 100 µM (inactive); in experiment [20], > 61.2 µM (inactive).
